Experimental data: US3946013A, “1,3-BIS(Beta-ethylhexyl)-5-amino-5-methylhexahydropyrimidine-pyridine- 3-carboxylate, process for its preparation and pharmaceutical compositions containing this compound” (Wulfing; Johann A., priority 1973, dated 1976)
Structures can show the parent of a compound that is named as a salt.

Tests used:
female NMRI mice = test: LD50 acute toxicity in mice (Litchfield and Wilcoxon); assay type: in vivo; conditions: for Toxicity, LD50 i.p. / Toxicity, LD50 p.o.: female NMRI mice 20-30 g, 10 days observation, 14400 min
[1] = solubility (testability in the bacteriostatic test); assay type: physicochemical; conditions: could not be tested in bacteriostatic test
[2] = antibacterial activity, general statement; assay type: cell-based
[3] = tested on: bacterial parent strains (Escherichia coli, Proteus vulgaris, Pseudomonas aeruginosa); test: bacteriostatic activity (serial dilution in thioglycolate nutrient solution); assay type: cell-based; conditions: for concentration at which activity is (still) shown (text): after 6 days at 30°C; for Bacteriostatic activity in relation to concentration (table): solutions containing 100 mg hexetidine, incubated at 30°C for 6 days
Description: For a determination of bacteriostatic activity, solutions of hexetidine, hexetidine oxalate and hexetidine nicotinate having the following compositions were compared: The inoculum suspension was obtained by inoculation of a sterile Petri dish containing nutrient agar (standard I) with a test culture of bacterial parent strains (Escherichia coli, Proteus vulgaris, Pseudomonas aeruginosa) and incubation at 30°C for 24 hours. The suspension was either used immediately or stored at +4°C. The organisms grown in the Petri dish were elutriated with 5 ml physiological brine solution and diluted 1:10 with the same solution to a volume of 50 ml. Then 250 ml double concentrated thioglycolate solution (60 g/l) were mixed with 100 drops (about 5 ml) of the above 1:10 diluted primary culture of bacterial parent strains and shaken to obtain a uniform suspension. Serial dilutions were prepared for each of the above-mentioned compound solutions in the following concentrations, each comprising 10 test tubes of […]: hexetidine per ml: 1,000; 500; 250; 125; 62.5; about 31; about 16; about 8; about 4; about 2. Next, 5 ml double concentrated thioglycolate nutrient solution inoculated with the test organisms were added to each test tube by means of a pipet. Each test tube thus contained 50% of the final concentration. […]

[4] = LD50 acute toxicity in mice (Litchfield and Wilcoxon); assay type: in vivo; conditions: mouse, in vivo, po; female NMRI mice 20-30 g; 10 days observation
[5] = Saski and Shah 1965; Barkley et al. 1960/1961; cited from earlier work
[6] = listed as Hexetidine nicotinate

CCCCC(CC)CN1CN(CC(CC)CCCC)CC(C)(N)C1 (stereo not drawn) [hexetidine cinnamate]
Toxicity, LD50 i.p. (female NMRI mice; listed as Hexetidine cinnamate): 54 mg/kg | Toxicity, LD50 p.o. (female NMRI mice; listed as Hexetidine cinnamate): 1,740 mg/kg | solubility [1]: extreme insolubility

CCCCC(CC)CN1CN(CC(CC)CCCC)CC(C)(N)C1 (stereo not drawn) [hexetidine nicotinate, 1,3-bis(β-ethylhexyl)-5-amino-5-methylhexahydropyrimidine pyridine-3-carboxylate]
Toxicity, LD50 i.p. (female NMRI mice; [6]): 63 mg/kg | Toxicity, LD50 p.o. (female NMRI mice; [6]): 1,830 mg/kg | toxicity of hexetidine after salt formation with nicotinic acid (female NMRI mice; relative to hexetidine, mice): substantially reduced | antibacterial activity compared with hexetidine [2]: particularly favorable increase in antibacterial activity | concentration at which activity is (still) shown (text) [3, 6]: 62.5 γ | Bacteriostatic activity in relation to concentration (table) [3, 6]: 62.5 γ

CCCCC(CC)CN1CN(CC(CC)CCCC)CC(C)(N)C1 (stereo not drawn) [hexetidine oxalate]
Toxicity, LD50 i.p. (female NMRI mice; listed as Hexetidine oxalate): 23 mg/kg | Toxicity, LD50 p.o. (female NMRI mice; listed as Hexetidine oxalate): 970 mg/kg | concentration at which activity is (still) shown (text) ([3]; listed as Hexetidine oxalate): > 500 γ | Bacteriostatic activity in relation to concentration (table) ([3]; listed as Hexetidine oxalate): 500 γ

CCCCC(CC)CN1CN(CC(CC)CCCC)CC(C)(N)C1 (stereo not drawn) [hexetidine, 1,3-bis(β-ethylhexyl)-5-amino-5-methylhexahydropyrimidine]
LD50 at 240 h [4]: 960 mg/kg | Toxicity, LD50 i.p. (female NMRI mice; listed as Hexetidine): 33 mg/kg | concentration at which activity is (still) shown (text) [3]: 125 γ | Bacteriostatic activity in relation to concentration (table) ([3]; listed as Hexetidine): 125 γ | antibacterial activity (words, literature) [5]: remarkable antibacterial activity
